Reference: patent publication US11020457B2, “Compositions and methods for protecting the kidney from ischemia reperfusion injury” (University of Virginia Patent Foundation, priority 2013, dated 2021)
“Also recorded” adds a separate entry of the source.

Key:
[1] = test system: hepcidin knockout mice (HAMP−/−); assay: Renal IRI in HAMP-/- mice: serum IL-6 by ELISA; type: in vivo; conditions: HAMP-/- IRI Vs HAMP-/- Hepcidin-IRI, p<0.05; FIG. 10b
Description: (§1) All experiments were performed in accordance with the National Institutes of Health and Institutional Animal Care and Use Guidelines. The Animal Care and Use Committee of the University of Virginia approved all procedures and protocols. C57BL/6 mice from the Jackson Laboratory and hepcidin knockout mice (HAMP−/−), a kind gift from Dr Cindy Roy (John Hopkins University) were used in this study. All experiments were performed on 8-10 weeks old male mice. Kidney ischemia-reperfusion surgery was performed as previously reported (44). The core temperature of the mice was maintained between 34° C. and 36° C. using a heating pad. After anesthetizing the mice (ketamine, 12 mg/ml; atropine, 0.48 mg/ml; xylazine, 24 mg/ml; […] mixture administered per 20 g body weight), bilateral flank incisions were made, both renal pedicles were exposed, and cross-clamped for 26 minutes (severe I/R injury) or 24 minutes (mild I/R injury). After the determined ischemia, clamps were removed, and kidneys were allowed to reperfuse for 24 hours. Ambient postoperative air temperature was maintained between 30° C. and 32° C. until mice had fully recovered. Sham-operated animals underwent bilateral flank incisions without clamping of renal pedicles. […]
(§2) Serum iron (Abcam), hepcidin (Intrinsic Lifescience) and IL-6 levels (eBioscience) were measured using commercial ELISA kits, as per manufacturers instructions.

[2] = test system: hepcidin knockout mice (HAMP−/−); assay: Mild renal IRI in HAMP-/- mice: kidney H-Ferritin and apoptosis (Caspase-3, Bcl-2, TUNEL); type: in vivo; conditions: for kidney Caspase-3 expression: HAMP-/- IRI Vs HAMP-/- Hepcidin-IRI, p<0.007, FIG. 7c; for TUNEL-positive cells in the kidney: hepcidin treated HAMP-/- IRI vs HAMP-/- IRI, FIG. 7g; for kidney H-Ferritin levels: hepcidin treated HAMP-/- IRI vs untreated p<0.05, lower than sham p<0.005, FIG. 7a-b
Description: (§3) All experiments were performed in accordance with the National Institutes of Health and Institutional Animal Care and Use Guidelines. The Animal Care and Use Committee of the University of Virginia approved all procedures and protocols. C57BL/6 mice from the Jackson Laboratory and hepcidin knockout mice (HAMP−/−), a kind gift from Dr Cindy Roy (John Hopkins University) were used in this study. All experiments were performed on 8-10 weeks old male mice. Kidney ischemia-reperfusion surgery was performed as previously reported (44). The core temperature of the mice was maintained between 34° C. and 36° C. using a heating pad. After anesthetizing the mice (ketamine, 12 mg/ml; atropine, 0.48 mg/ml; xylazine, 24 mg/ml; […] mixture administered per 20 g body weight), bilateral flank incisions were made, both renal pedicles were exposed, and cross-clamped for 26 minutes (severe I/R injury) or 24 minutes (mild I/R injury). After the determined ischemia, clamps were removed, and kidneys were allowed to reperfuse for 24 hours. Ambient postoperative air temperature was maintained between 30° C. and 32° C. until mice had fully recovered. Sham-operated animals underwent bilateral flank incisions without clamping of renal pedicles. Twenty-four hours later, mice were euthanized, and tissues were harvested.
(§4) Apoptotic cells in the kidney were detected by TUNEL assay following the manufacturer's protocol (Roche Diagnostics, Mannheim, Germany). Briefly, PLP-fixed kidney sections were immersed in 3% hydrogen peroxide-methanol (10 minutes) and permeabilized with cold 0.1% Triton-X100 and 0.1% […] (2 minutes). DNA fragments in apoptotic cells were then labeled and identified by terminal transferase dUTP conjugated to fluorescein (Roche Diagnostics) for 60 minutes at room temperature in dark. The apoptotic cells were imaged using a Zeiss Axiovert 200 microscope with Apo Tome (Zeiss).
Snap frozen tissue sections were homogenized in Tris-Triton tissue lysis buffer containing complete protease inhibitor cocktail using a Dounce Homogenizer. Membrane fractions were isolated from the whole kidney lysate using membrane isolation kit (Thermo Pierce) to determine ferroportin expression. H-Ferritin was measured in the whole kidney and spleen lysates. Protein content in the homogenate was estimated using the BCA protein estimation kit. Twenty to thirty microgram of protein per sample were loaded on a 10% NuPage Bis-Tris gel under reducing conditions. The resolved proteins were transferred onto a Nitrocellulose membrane (Licor Bioscience) and probed with goat anti-mouse H-Ferritin (Santa Cruz) and rabbit anti-mouse ferroportin (Novus Biologics) antibodies. The primary antibodies were detected with Donkey anti-goat Alexa 800 and goat anti-rabbit Alexa 800 antibodies (LiCor Bioscience). Mouse monoclonal GAPDH and β-Actin (Abcam) were used as the loading controls and detected using Donkey anti Mouse Alexa 680 antibody (LiCor Bioscience). Quantitation of data was performed using densitometry software (Licor Bioscience).
(§5) For RNA isolation, frozen tissues were re-suspended in RLT buffer (Qiagen Inc, Valencia, Calif.) and homogenized using TissueLyser system (Qiagen Inc, Valencia, Calif.). Total RNA from tissue homogenate was purified using RNAeasy mini kit (Qiagen Inc, Valencia, Calif.) following manufacturers instructions. 1 μg of RNA was used to synthesize cDNA using the iScript cDNA synthesis kit (Bio-Rad). The cDNA template was mixed with iTAQ SYBR green universal super mix (Bio-Rad) and quantitative PCR was carried out on CFX Connect system (Bio-Rad). Predesigned primers for Caspase-3 and Bcl-2 were purchased from Bio-rad. Glyceraldehyde-3-phosphate dehydrogenase (GAPDH) was amplified in parallel and used as the reference gene in quantification. Data is expressed as the relative gene expression and was calculated using the 2 (−ρρC(T)) method.
WT mice injected with hepcidin had higher levels of H-Ferritin and less apoptotic kidney injury. […]

C57BL/6 mice [3] = assay: Renal IRI in WT mice: splenic ferroportin (immunofluorescence) and splenic H-Ferritin (Western blot); type: in vivo; conditions: for splenic H-Ferritin: WT hepcidin IRI vs IRI and vs Sham, p<0.05, FIG. 9b
Description: as §3, with “harvested. […]” for “harvested.”
Snap frozen tissue sections were homogenized in Tris-Triton tissue lysis buffer containing complete protease inhibitor cocktail using a Dounce Homogenizer. […] H-Ferritin was measured in the whole kidney and spleen lysates. […] The primary antibodies were detected with Donkey anti-goat Alexa 800 and goat anti-rabbit Alexa 800 antibodies (LiCor Bioscience). Mouse monoclonal GAPDH and β-Actin (Abcam) were used as the loading controls and detected using Donkey anti Mouse Alexa 680 antibody (LiCor Bioscience). Quantitation of data was performed using densitometry software (Licor Bioscience).

C57BL/6 mice [4] = assay: Renal IRI in WT mice: kidney apoptosis (Caspase-3, Bcl-2 real time PCR, TUNEL); type: in vivo; conditions: for TUNEL reactivity in kidney: 26 minutes ischemia, 24 hours reperfusion, FIG. 3e-f; for kidney Caspase-3 expression: hepcidin before IRI, vs IRI p<0.005, vs sham p<0.03, FIG. 3a; for kidney Bcl2 expression: hepcidin-IRI vs untreated IRI, p<0.0008, FIG. 3b
Description: as §3
Animals were divided into three groups, injected intraperitoneally with water and underwent IRI (IRI), injected intraperitoneally with 50-100 μg hepcidin at different time points prior to IRI (Hepcidin-IRI) or were sham operated (Sham). The experimental design is depicted in FIG. 2a.
as §4, §5

[5] = test system: hepcidin knockout mice (HAMP−/−); assay: Mild renal IRI in HAMP-/- mice: serum iron and tissue non-heme iron; type: in vivo; conditions: for serum iron / liver non-heme iron content: HAMP-/- hepcidin-IRI vs untreated IRI p<0.005, vs sham p<0.0005; for serum iron: FIG. 6e; for liver non-heme iron content: FIG. 6f
Description: as §3, §2
Non-heme iron content in tissue was measured using the method described in published literature with slight modifications (60). Briefly, tissues were accurately weighed, finely cut and placed for 20 hours at 65° C. in a solution of 3M HCl/0.61 M trichloroacetic acid. After cooling to room temperature, the acid extract was spun at 12,000 rpm to collect the supernatant. 0.1 mL of the supernatant was incubated with chromogen solution (1.86 mM bathophenanthroline sulfonate/143 mM thioglycollic acid) for 20 minutes, and OD was measured at 535 nm. A standard curve was generated using an iron standard solution (Ricca Iron AA standard) against water as the blank. Non-heme iron content (μg/g) was calculated using the equation described (60).
We measured the serum iron and non-heme iron content in the kidney, spleen and liver of sham, untreated and hepcidin injected HAMP^−/− mice after IRI.

[6] = test system: hepcidin knockout mice (HAMP−/−); assay: Renal IRI in HAMP-/- mice: splenic ferroportin and splenic H-Ferritin; type: in vivo; conditions: for splenic H-Ferritin: HAMP-/- Hepcidin-IRI vs HAMP-/- IRI and vs Sham, p<0.005, FIG. 9c
Description: as §3
Snap frozen tissue sections were homogenized in Tris-Triton tissue lysis buffer containing complete protease inhibitor cocktail using a Dounce Homogenizer. Membrane fractions were isolated from the whole kidney lysate using membrane isolation kit (Thermo Pierce) to determine ferroportin expression. H-Ferritin was measured in the whole kidney and spleen lysates. […] The primary antibodies were detected with Donkey anti-goat Alexa 800 and goat anti-rabbit Alexa 800 antibodies (LiCor Bioscience). Mouse monoclonal GAPDH and β-Actin (Abcam) were used as the loading controls and detected using Donkey anti Mouse Alexa 680 antibody (LiCor Bioscience). Quantitation of data was performed using densitometry software (Licor Bioscience).

C57BL/6 mice [7] = assay: Renal IRI in WT mice: IL-6 levels by ELISA; type: in vivo
Description: as §1, §2

[8] = test system: iron loaded bone marrow macrophages; conditions: hepcidin pretreatment; cited from earlier work

## Mouse hepcidin 25 (DTNFPICIFCCKCCNNSQCGICCKT; listed as Mus musculus)
[1]
  serum IL-6 levels: prevented IRI-induced increase in IL-6 levels; also recorded: significantly reduced serum IL6 compared to untreated
[2]; HAMP-/- Hepcidin-IRI Vs HAMP-/- IRI, p<0.005, FIG. 7d
  kidney Bcl-2 expression: prevented the decrease in Bcl-2 expression; also recorded: higher level of anti apoptotic Bcl2
[2]
  kidney Caspase-3 expression: lower transcriptional activation of pro apoptotic Caspase3
  TUNEL-positive cells in the kidney: markedly reduced
  kidney H-Ferritin levels: significantly higher H ferritin levels
[2]; listed as hepcidin
  kidney Caspase-3 expression: almost completely prevented
  TUNEL-positive cells in the kidney: significantly fewer TUNEL-positive cells
  kidney H-Ferritin levels: significantly higher than in untreated
C57BL/6 mice [3]
  splenic H-Ferritin: increased splenic H-Ferritin levels
C57BL/6 mice [3]; listed as hepcidin
  splenic H-Ferritin: significantly higher H-Ferritin compared to both untreated IRI mice and sham controls
C57BL/6 mice [3]; hepcidin treatment, renal IRI, FIG. 9a bottom panel
  splenic ferroportin expression: dramatic decrease in surface expression of ferroportin; also recorded: degradation of ferroportin
C57BL/6 mice [4]
  TUNEL reactivity in kidney: reduced by Hepcidin pretreatment
  kidney Caspase-3 expression: significantly reduced IRI-induced Caspase-3 expression; also recorded: lower transcriptional activation of pro apoptotic Caspase3
  kidney Bcl2 expression: better preservation of anti apoptotic Bcl2
C57BL/6 mice [4]; listed as hepcidin
  TUNEL reactivity in kidney: remarkably fewer TUNEL-positive tubules
  kidney Caspase-3 expression: even lower than the sham mice
  kidney Bcl2 expression: significantly higher expression of Bcl2 compared to untreated IRI mice
[5]
  serum iron: significantly reduced serum iron
  liver non-heme iron content: significantly higher non-heme iron
[5]; listed as hepcidin
  serum iron: significantly lowered serum iron
  liver non-heme iron content: significantly higher than the untreated
[5]; hepcidin-treated HAMP-/- mice
  splenic iron content by Prussian blue staining: qualitative increases in splenic iron content
[5]; sham, untreated and hepcidin injected HAMP-/- mice after IRI (data not shown)
  non-heme iron content of the spleen and kidneys: could not detect quantitative differences
[6]
  splenic H-Ferritin: increased splenic H-Ferritin levels
[6]; listed as hepcidin
  splenic H-Ferritin: significantly higher H-Ferritin compared to both untreated IRI mice and sham controls
[6]; hepcidin reconstitution in HAMP-/- mice, renal IRI
  splenic ferroportin expression: lower ferroportin expression than sham-operated mice
C57BL/6 mice [7]; WT-IRI Vs WT Hepcidin-IRI, p<0.007, FIG. 10a
  serum IL-6 levels: prevented IRI-induced increase in IL-6 levels; also recorded: prevented by Hepcidin
C57BL/6 mice [7]; hepcidin treatment, renal IRI (discussion)
  splenic, renal, and systemic IL-6 levels: significantly prevented IRI-induced increase in splenic, renal, and systemic IL-6 levels
[8]
  LPS-induced IL-6 and TNF alpha production: reduced LPS-induced IL-6 and TNF alpha production
